In US4795748A, “Antibacterial 7-oxo-4-thia-1-azabicyclo[3,2,0]hept-2-ene derivatives” (Hoechst UK Limited, priority 1984, dated 1989):
In brackets after ≈: the same amount, converted by molar mass.

Legend:
Type in all cases: cell-based
[1] = tested on: Str. pyogenes 308 A; assay: agar dilution test, MIC, Str. pyogenes 308 A; settings: Streptococcus pyogenes, Mueller Hinton agar, 16 to 18 hours, 37° C., read-out: Minimum Inhibitory Concentration
Method: (§1) The antimicrobial activity was determined by measuring the Minimum Inhibitory Concentration (MIC). The MIC of the compounds was determined by a standard test, the "agar dilution test" according to Lorian (Antibioticsin Laboratory Medicine, Williams and Wilkins, Baltimore/London 1980) as follows:
(§2) A two-fold decreasing concentration series of each compound was prepared in Petri dishes containing 15 ml of Mueller Hinton agar (Difco). One Petri dish containing only the Mueller Hinton agar served as control for bacterial growth. Each Petri dish was inoculated with a multi-point inoculator (Denley), which transfered 0.6 μl of a 1:100 diluted 18 hours culture of the appropriate test bacterium. After 16 to 18 hours of incubation at 37° C., the Petri dishes were examined for growth of bacteria. The lowest concentration of the compound which causes complete inhibition of growth is taken as the MIC.

[2] = tested on: Ent. cloacae 1321 E; assay: agar dilution test, MIC, Ent. cloacae 1321 E; settings: Enterobacter cloacae, Mueller Hinton agar, 16 to 18 hours, 37° C., read-out: Minimum Inhibitory Concentration
Method: as §1, §2

[3] = tested on: Staph. aureus SG 511; assay: agar dilution test, MIC, Staph. aureus SG 511; settings: Staphylococcus aureus, SG511, Mueller Hinton agar, 16 to 18 hours, 37° C., read-out: Minimum Inhibitory Concentration
Method: as §1, §2

[4] = tested on: Str. pyogenes 77A; assay: agar dilution test, MIC, Str. pyogenes 77A; settings: Streptococcus pyogenes, Mueller Hinton agar, 16 to 18 hours, 37° C., read-out: Minimum Inhibitory Concentration
Method: as §1, §2

[5] = tested on: E. coli DC2; assay: agar dilution test, MIC, E. coli DC2; settings: Escherichia coli, Mueller Hinton agar, 16 to 18 hours, 37° C., read-out: Minimum Inhibitory Concentration
Method: as §1, §2

[6] = tested on: E. coli KN 126; assay: agar dilution test, MIC, E. coli KN 126; settings: Escherichia coli, KN126, Mueller Hinton agar, 16 to 18 hours, 37° C., read-out: Minimum Inhibitory Concentration
Method: as §1, §2

[7] = tested on: Str. faecium D; assay: agar dilution test, MIC, Str. faecium D; settings: Enterococcus faecium, Mueller Hinton agar, 16 to 18 hours, 37° C., read-out: Minimum Inhibitory Concentration
Method: as §1, §2

[8] = tested on: E. coli 1507 E; assay: agar dilution test, MIC, E. coli 1507 E; settings: Escherichia coli, Mueller Hinton agar, 16 to 18 hours, 37° C., read-out: Minimum Inhibitory Concentration
Method: as §1, §2

[9] = tested on: Staph. aureus 285; assay: agar dilution test, MIC, Staph. aureus 285; settings: Staphylococcus aureus, Mueller Hinton agar, 16 to 18 hours, 37° C., read-out: Minimum Inhibitory Concentration
Method: as §1, §2

[10] = tested on: Kl. aerog. 1522 E; assay: agar dilution test, MIC, Kl. aerog. 1522 E; settings: Mueller Hinton agar, 16 to 18 hours, 37° C., read-out: Minimum Inhibitory Concentration
Method: as §1, §2

[11] = tested on: Bac. subtilis ATCC 6633; assay: agar dilution test, MIC, Bac. subtilis ATCC 6633; settings: Bacillus subtilis, ATCC6633, Mueller Hinton agar, 16 to 18 hours, 37° C., read-out: Minimum Inhibitory Concentration
Method: as §1, §2

[12] = tested on: Salm. typhimurium MZ II; assay: agar dilution test, MIC, Salm. typhimurium MZ II; settings: Salmonella enterica, Mueller Hinton agar, 16 to 18 hours, 37° C., read-out: Minimum Inhibitory Concentration
Method: as §1, §2

[13] = tested on: E. coli TEM; assay: agar dilution test, MIC, E. coli TEM; settings: Escherichia coli, 18 h, read-out: Minimum Inhibitory Concentration
Method: as §1, §2

[14] = tested on: E. coli 055; assay: agar dilution test, MIC, E. coli 055; settings: Escherichia coli, Mueller Hinton agar, 16 to 18 hours, 37° C., read-out: Minimum Inhibitory Concentration
Method: as §1, §2

[15] = tested on: Staph. aureus 503; assay: agar dilution test, MIC, Staph. aureus 503; settings: Staphylococcus aureus, Mueller Hinton agar, 16 to 18 hours, 37° C., read-out: Minimum Inhibitory Concentration
Method: as §1, §2

[16] = tested on: a variety of microorganisms, particularly β-lactamase producing organisms; assay: antibacterial activity compared with the corresponding unsubstituted 3-phenoxy compound; settings: against a variety of microorganisms
Method: as §1, §2

[17] = tested on: Kl. aerog. 1082 E; assay: agar dilution test, MIC, Kl. aerog. 1082 E; settings: Mueller Hinton agar, 16 to 18 hours, 37° C., read-out: Minimum Inhibitory Concentration
Method: as §1, §2

## C[C@@H](O)[C@H]1C(=O)N2C(C(=O)O)=C(Oc3ccc(C(N)=O)cc3)S[C@H]12 [Ra = 4-CONH2, 5R-3-(4-carbamoylphenoxy)-6S-(1R-hydroxyethyl)-7-oxo-4-thia-1-azabicyclo[3,2,0]hept-2-ene-2-carboxylate]
[1]
  MIC: 0.025 µg/mL (≈ 0.0714 µM)
[2]
  MIC: 0.78 µg/mL (≈ 2.23 µM)
[3]
  MIC: 0.05 µg/mL (≈ 0.143 µM)
[4]
  MIC: 0.05 µg/mL (≈ 0.143 µM)
[5]
  MIC: 0.78 µg/mL (≈ 2.23 µM)
[6]
  MIC: 0.39 µg/mL (≈ 1.11 µM)
[7]
  MIC: 6.25 µg/mL (≈ 17.8 µM)
[8]
  MIC: 0.39 µg/mL (≈ 1.11 µM)
[9]
  MIC: 0.1 µg/mL (≈ 0.285 µM)
[10]
  MIC: 0.78 µg/mL (≈ 2.23 µM)
[11]
  MIC: 0.05 µg/mL (≈ 0.143 µM)
[12]
  MIC: 0.78 µg/mL (≈ 2.23 µM)
[13]
  MIC: 0.39 µg/mL (≈ 1.11 µM)
[14]
  MIC: 0.19 µg/mL (≈ 0.542 µM)
[15]
  MIC: 0.1 µg/mL (≈ 0.285 µM)
[16]
  antibacterial activity versus the corresponding unsubstituted 3-phenoxy compound: greater antibacterial activity
[17]
  MIC: 0.39 µg/mL (≈ 1.11 µM)
